Measurements reported in patent US20110200535A1, “DAA-PYRIDINE AS PERIPHERAL BENZODIAZEPINE RECEPTOR LIGAND FOR DIAGNOSTIC IMAGING AND PHARMACEUTICAL TREATMENT” (BAYER SCHERING PHARMA AKTIENGESELLSCHAFT, priority 2008, published 2011).
“And” between values parts separate entries of the source, which are not always exact repeats. Equal values may be shown once.

Tests used:
[1] = cited from earlier work
PBR = PBR (Homo sapiens, UniProt P30536); assay: PBR binding, [^3H]-PK11195
[2] = biological target: CBR (central diazepine receptor); assay: CBR binding, [^3H]-Flumazenil
[3] = Biodistribution of [^18F]-radioactivity in healthy male NMRI mice after intravenous injection (gamma counter); type: in vivo; settings: for [^18F]-radioactivity in adrenals / [^18F]-radioactivity in blood / [^18F]-radioactivity in bone / [^18F]-radioactivity in brain (brain uptake) / [^18F]-radioactivity in fat / [^18F]-radioactivity in heart / [^18F]-radioactivity in intestine / [^18F]-radioactivity in kidney / [^18F]-radioactivity in liver / [^18F]-radioactivity in lung / [^18F]-radioactivity in muscle / [^18F]-radioactivity in pancreas / [^18F]-radioactivity in skin / [^18F]-radioactivity in spleen / [^18F]-radioactivity in stomach / [^18F]-radioactivity in testes / [^18F]-radioactivity in thyroid: normal mice, i.v., decay corrected
Description: (§1) The biodistribution of [^18F]-2d and [^18F]-5d was investigated in healthy male NMRI mice (28.3-35.6 g body weight, n=3 animals per time point) at 2, 5, 30, 60 and 180/240 min after intravenous injection of 0.264 MBq [^18F]-2d and 0.268 MBq [^18F]-5d per animal, respectively. Until the indicated time points urine and faeces were quantitatively collected. At the respective time points the mice were sacrificed and the tissues were removed. [^18F]-radioactivity was analyzed in a gamma counter (Tab. 1.1, 2.1 and 1.2, 2.2).

[4] = biological target: T1, peripheral benzodiazepine receptor (PBR) (Rattus norvegicus, UniProt P16257); assay: Ex vivo autoradiography of brain sections, rat kainic acid induced epilepsy model; type: in vivo; settings: for Hipp/Cereb ratio (signal-to-background ratio, hippocampus/cerebellum): rat kainic acid model, 30 min ex vivo autoradiography
T1 construct: from tissue; host or cells: rat brain (hippocampus, cerebellum) after i.v. tracer injection
Description: Using a rat kainic acid induced epilepsy model and respective sham controls the accumulation of [^18F]-2d and [^18F]-5d was visualized ex vivo. In brief, epilepsy was induced in rats by injecting kainic acid i.p. At day eight after the start of the kainic acid treatment [^18F]-2d and [^18F]-5d were injected into the tail vein of the rats and their sham treated controls (PBS instead of kainic acid) at a dose of 25.8-35.8 MBq (approximately 1.0 μg) per rat. Thirty minutes after intravenous injection the rats were sacrificed, the brains were taken out, snap frozen and sliced transversally in a cryostat. The slices were exposed to PhosphoImager plates over night. The resulting autoradiographic signals were analyzed qualitatively and quantitatively (FIG. 2.1 A and C, 2.2 A and C). […] To determine the specificity of the [^18F]-2d and [^18F]-5d binding, kainic acid treated rats were co-injected with [^19F]-2e and [^19F]-5e, respectively.
The autoradiographic signals were quantified. The signal intensity in a hippocampal region of interest (ROI) was measured and compared to a ROI in the cerebellum, that was used as reference region.

[5] = Excretion of [^18F]-radioactivity via urine and faeces in normal mice (gamma counter); type: in vivo; settings: i.v., decay corrected
Description: as §1

PBR, sequence (P30536 whole entry, species assumed): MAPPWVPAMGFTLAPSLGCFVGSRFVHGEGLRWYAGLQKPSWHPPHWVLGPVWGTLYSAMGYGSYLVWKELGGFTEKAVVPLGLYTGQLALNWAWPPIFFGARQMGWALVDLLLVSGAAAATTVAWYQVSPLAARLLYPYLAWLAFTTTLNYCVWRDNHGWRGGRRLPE

CC(=O)N(Cc1ccccc1OCC[18F])c1cnccc1Oc1ccccc1 [[^18F]-FEPPA]
Brain uptake, standard uptake value (SUV), washout ([1]; after 60 min): 0.35
Brain uptake, standard uptake value (SUV) ([1]; at 5 min): 0.6

COc1ccc(Oc2ncccc2N(Cc2cc(OC)ccc2OCCF)C(C)=O)cc1 [[^19F]-2e, N-[2-(2-fluoroethoxy)-5-methoxybenzyl]-N-[2-(4-methoxyphenoxy)pyridin-3-yl]acetamide]
Ki (PBR): 3.6 ± 1.3 nM
Ki [2]: > 20000 nM

CCN(CC)C(=O)Cc1c(-c2ccc(OCCF)cc2)nn2c(C)cc(C)nc12 [[^19F]-DPA-714, reference compound]
Ki (PBR): 1.46 ± 0.12 nM
Ki [2]: > 20000 nM

COc1ccc(Oc2ncccc2N(Cc2cc(OC)ccc2OCC[18F])C(C)=O)cc1 [[^18F]-2d, N-[2-(2-[^18F]fluoroethoxy)-5-methoxybenzyl]-N-[2-(4-methoxyphenoxy)pyridin-3-yl]acetamide]
Initial elimination of the radioactivity from the brain ([3]; mice, 30 min p.i.): ca. 72%
Elimination from mouse brain, 2 min/30 min ratio of brain uptake (% ID/g) ([3]; mice, brain, 2 min to 30 min): 3.7
[^18F]-radioactivity in adrenals ([3]; 2 min): 7.37 ± 2.53 % injected dose/g
[^18F]-radioactivity in blood ([3]; 2 min): 2.35 ± 0.15 % injected dose/g
[^18F]-radioactivity in bone ([3]; 2 min): 0.87 ± 0.11 % injected dose/g
[^18F]-radioactivity in brain (brain uptake) ([3]; 2 min): 1.37±0.04 % injected dose/g
[^18F]-radioactivity in fat ([3]; 2 min): 0.41 ± 0.49 % injected dose/g
[^18F]-radioactivity in heart ([3]; 2 min): 16.53 ± 0.48 % injected dose/g
[^18F]-radioactivity in intestine ([3]; 2 min): 0.82 ± 0.04 % injected dose/g
[^18F]-radioactivity in kidney ([3]; 2 min): 5.92 ± 1.40 % injected dose/g
[^18F]-radioactivity in liver ([3]; 2 min): 1.20 ± 0.28 % injected dose/g
[^18F]-radioactivity in lung ([3]; 2 min): 61.50 ± 10.42 % injected dose/g
[^18F]-radioactivity in muscle ([3]; 2 min): 1.23 ± 0.47 % injected dose/g
[^18F]-radioactivity in pancreas ([3]; 2 min): 1.91 ± 0.33 % injected dose/g
[^18F]-radioactivity in skin ([3]; 2 min): 0.51 ± 0.14 % injected dose/g
[^18F]-radioactivity in spleen ([3]; 2 min): 1.50 ± 0.20 % injected dose/g
[^18F]-radioactivity in stomach ([3]; 2 min): 2.15 ± 1.25 % injected dose/g
[^18F]-radioactivity in testes ([3]; 2 min): 0.48 ± 0.10 % injected dose/g
[^18F]-radioactivity in thyroid ([3]; 2 min): 2.15 ± 1.49 % injected dose/g
[^18F]-radioactivity in adrenals ([3]; 5 min): 10.39 ± 3.44 % injected dose/g
[^18F]-radioactivity in blood ([3]; 5 min): 1.44 ± 0.07 % injected dose/g
[^18F]-radioactivity in bone ([3]; 5 min): 1.30 ± 0.02 % injected dose/g
[^18F]-radioactivity in brain (brain uptake) ([3]; 5 min): 0.95 ± 0.07 % injected dose/g
[^18F]-radioactivity in fat ([3]; 5 min): 0.25 ± 0.06 % injected dose/g
[^18F]-radioactivity in heart ([3]; 5 min): 17.09 ± 0.64 % injected dose/g
[^18F]-radioactivity in intestine ([3]; 5 min): 1.36 ± 0.33 % injected dose/g
[^18F]-radioactivity in kidney ([3]; 5 min): 7.45 ± 1.00 % injected dose/g
[^18F]-radioactivity in liver ([3]; 5 min): 1.41 ± 0.26 % injected dose/g
[^18F]-radioactivity in lung ([3]; 5 min): 34.75 ± 6.56 % injected dose/g
[^18F]-radioactivity in muscle ([3]; 5 min): 1.58 ± 0.52 % injected dose/g
[^18F]-radioactivity in pancreas ([3]; 5 min): 2.23 ± 0.60 % injected dose/g
[^18F]-radioactivity in skin ([3]; 5 min): 0.60 ± 0.11 % injected dose/g
[^18F]-radioactivity in spleen ([3]; 5 min): 4.78 ± 0.73 % injected dose/g
[^18F]-radioactivity in stomach ([3]; 5 min): 1.89 ± 1.77 % injected dose/g
[^18F]-radioactivity in testes ([3]; 5 min): 0.50 ± 0.15 % injected dose/g
[^18F]-radioactivity in thyroid ([3]; 5 min): 2.65 ± 0.58 % injected dose/g
[^18F]-radioactivity in adrenals ([3]; 30 min): 15.51 ± 0.48 % injected dose/g
[^18F]-radioactivity in blood ([3]; 30 min): 0.70 ± 0.14 % injected dose/g
[^18F]-radioactivity in bone ([3]; 30 min): 1.67 ± 0.32 % injected dose/g
[^18F]-radioactivity in brain (brain uptake) ([3]; 30 min): 0.37±0.04 % injected dose/g
[^18F]-radioactivity in fat ([3]; 30 min): 0.46 ± 0.10 % injected dose/g
[^18F]-radioactivity in heart ([3]; 30 min): 7.94 ± 1.52 % injected dose/g
[^18F]-radioactivity in intestine ([3]; 30 min): 2.15 ± 0.62 % injected dose/g
[^18F]-radioactivity in kidney ([3]; 30 min): 10.99 ± 1.08 % injected dose/g
[^18F]-radioactivity in liver ([3]; 30 min): 1.61 ± 0.43 % injected dose/g
[^18F]-radioactivity in lung ([3]; 30 min): 10.66 ± 0.71 % injected dose/g
[^18F]-radioactivity in muscle ([3]; 30 min): 1.80 ± 0.17 % injected dose/g
[^18F]-radioactivity in pancreas ([3]; 30 min): 2.85 ± 0.03 % injected dose/g
[^18F]-radioactivity in skin ([3]; 30 min): 0.98 ± 0.06 % injected dose/g
[^18F]-radioactivity in spleen ([3]; 30 min): 6.98 ± 0.82 % injected dose/g
[^18F]-radioactivity in stomach ([3]; 30 min): 3.49 ± 0.45 % injected dose/g
[^18F]-radioactivity in testes ([3]; 30 min): 0.79 ± 0.11 % injected dose/g
[^18F]-radioactivity in thyroid ([3]; 30 min): 3.95 ± 0.81 % injected dose/g
[^18F]-radioactivity in adrenals ([3]; 60 min): 23.01 ± 8.20 % injected dose/g
[^18F]-radioactivity in blood ([3]; 60 min): 0.60 ± 0.09 % injected dose/g
[^18F]-radioactivity in bone ([3]; 60 min): 1.75 ± 0.09 % injected dose/g
[^18F]-radioactivity in brain (brain uptake) ([3]; 60 min): 0.34 ± 0.02 % injected dose/g
[^18F]-radioactivity in fat ([3]; 60 min): 0.49 ± 0.06 % injected dose/g
[^18F]-radioactivity in heart ([3]; 60 min): 5.22 ± 0.61 % injected dose/g
[^18F]-radioactivity in intestine ([3]; 60 min): 2.33 ± 0.34 % injected dose/g
[^18F]-radioactivity in kidney ([3]; 60 min): 11.04 ± 0.48 % injected dose/g
[^18F]-radioactivity in liver ([3]; 60 min): 1.56 ± 0.22 % injected dose/g
[^18F]-radioactivity in lung ([3]; 60 min): 6.31 ± 0.34 % injected dose/g
[^18F]-radioactivity in muscle ([3]; 60 min): 2.34 ± 0.23 % injected dose/g
[^18F]-radioactivity in pancreas ([3]; 60 min): 2.56 ± 0.26 % injected dose/g
[^18F]-radioactivity in skin ([3]; 60 min): 1.14 ± 0.06 % injected dose/g
[^18F]-radioactivity in spleen ([3]; 60 min): 6.09 ± 0.50 % injected dose/g
[^18F]-radioactivity in stomach ([3]; 60 min): 4.37 ± 0.51 % injected dose/g
[^18F]-radioactivity in testes ([3]; 60 min): 0.84 ± 0.09 % injected dose/g
[^18F]-radioactivity in thyroid ([3]; 60 min): 3.88 ± 0.10 % injected dose/g
[^18F]-radioactivity in adrenals ([3]; 180 min): 13.74 ± 7.36 % injected dose/g
[^18F]-radioactivity in blood ([3]; 180 min): 0.66 ± 0.09 % injected dose/g
[^18F]-radioactivity in bone ([3]; 180 min): 2.3 % injected dose/g and 2.25 ± 0.20 % injected dose/g
[^18F]-radioactivity in brain (brain uptake) ([3]; 180 min): 0.35 ± 0.02 % injected dose/g
[^18F]-radioactivity in fat ([3]; 180 min): 2.02 ± 1.06 % injected dose/g
[^18F]-radioactivity in heart ([3]; 180 min): 2.78 ± 0.18 % injected dose/g
[^18F]-radioactivity in intestine ([3]; 180 min): 4.28 ± 0.94 % injected dose/g
[^18F]-radioactivity in kidney ([3]; 180 min): 10.63 ± 1.41 % injected dose/g
[^18F]-radioactivity in liver ([3]; 180 min): 1.29 ± 0.20 % injected dose/g
[^18F]-radioactivity in lung ([3]; 180 min): 4.57 ± 1.44 % injected dose/g
[^18F]-radioactivity in muscle ([3]; 180 min): 1.84 ± 0.29 % injected dose/g
[^18F]-radioactivity in pancreas ([3]; 180 min): 1.76 ± 0.40 % injected dose/g
[^18F]-radioactivity in skin ([3]; 180 min): 1.60 ± 0.19 % injected dose/g
[^18F]-radioactivity in spleen ([3]; 180 min): 4.07 ± 0.51 % injected dose/g
[^18F]-radioactivity in stomach ([3]; 180 min): 4.37 ± 0.68 % injected dose/g
[^18F]-radioactivity in testes ([3]; 180 min): 1.14 ± 0.11 % injected dose/g
[^18F]-radioactivity in thyroid ([3]; 180 min): 3.91 ± 0.75 % injected dose/g
Specificity of binding: autoradiographic signal on co-injection of the corresponding [^19F] compound ([4]; kainic acid treated rats, co-injected with [^19F]-2e and [^19F]-5e, respectively): significantly reduced autoradiographic signal
Hipp/Cereb ratio (signal-to-background ratio, hippocampus/cerebellum) [4]: 5.6 ± 1.8
Excretion of [^18F]-radioactivity via faeces ([5]; 2 min): 0.00 ± 0.00 % injected dose
Excretion of [^18F]-radioactivity via urine ([5]; 2 min): 0.02 ± 0.01 % injected dose
Excretion of [^18F]-radioactivity via faeces ([5]; 5 min): 0.02 ± 0.03 % injected dose
Excretion of [^18F]-radioactivity via urine ([5]; 5 min): 0.02 ± 0.01 % injected dose
Excretion of [^18F]-radioactivity via faeces ([5]; 30 min): 0.01 ± 0.00 % injected dose
Excretion of [^18F]-radioactivity via urine ([5]; 30 min): 1.72 ± 0.08 % injected dose
Excretion of [^18F]-radioactivity via faeces ([5]; 60 min): 0.03 ± 0.03 % injected dose
Excretion of [^18F]-radioactivity via urine ([5]; 60 min): 4.21 ± 0.39 % injected dose
Excretion of [^18F]-radioactivity via faeces ([5]; 180 min): 0.59±0.61 % injected dose
Excretion of [^18F]-radioactivity via urine ([5]; 180 min): 13.09±1.33 % injected dose

COc1ccc(OCCF)c(CN(C(C)=O)c2cc(F)ccc2Oc2ccccc2)c1 [[^19F]-FEDAA1106, reference compound]
Ki (PBR): 1.5 ± 0.15 nM
Ki [2]: > 20000 nM

COc1ccc(OCCF)c(CN(C(C)=O)c2cccnc2Oc2cccc(C)c2C)c1 [[^19F]-5e, N-[2-(2,3-dimethylphenoxy)pyridin-3-yl]-N-[2-(2-fluoroethoxy)-5-methoxybenzyl]acetamide]
Ki (PBR): 2.57 ± 0.06 nM
Ki [2]: > 20000 nM
Hipp/Cereb ratio (signal-to-background ratio, hippocampus/cerebellum) [4]: 5.6±1.8
